# Results: ChEMBL document CHEMBL5252614, “Dioncophyllidine E: The first configurationally semi-stable, 7,3'-coupled naphthyldihydroisoquinoline alkaloid, from Ancistrocladus abbreviatus, with antiausterity activity against PANC-1 human pancreatic cancer cells” (2023)
# How the values were obtained:
# Assay type in all cases: functional
# PANC-1 [1] = assay: Preferential cytotoxicity against human PANC-1 cells in nutrient-deprived medium
# PANC-1 [2] = assay: Induction of cell death in human PANC-1 cells assessed as increase in cells emitting red fluorescence incubated for 24 hrs in nutrient-deprived medium by ethidium bromide/acridine orange staining based analysis; conditions: dose 10-20 µM
# PANC-1 [3] = assay: Induction of cell death in human PANC-1 cells assessed as alteration in cell morphology incubated for 24 hrs in nutrient-deprived medium by ethidium bromide/acridine orange staining based analysis; conditions: dose 10-20 µM
# PANC-1 [4] = assay: Inhibition of colony formation in human PANC1 cells assessed as colony area at 10 uM incubated for 24 hrs in normal nutrient DMEM media followed by replacement with fresh media and further incubated for 10 days (reference value: 52%); set-up: scale not given: the % may be the effect or the level left
# PANC-1 [5] = assay: Inhibition of colony formation in human PANC1 cells assessed as colony area at 20 uM incubated for 24 hrs in normal nutrient DMEM media followed by replacement with fresh media and further incubated for 10 days (reference value: 52%); set-up: scale not given: the % may be the effect or the level left
# PANC-1 [6] = assay: Inhibition of colony formation in human PANC1 cells assessed as colony area at 40 uM incubated for 24 hrs in normal nutrient DMEM media followed by replacement with fresh media and further incubated for 10 days (reference value: 52%); set-up: scale not given: the % may be the effect or the level left
structure (smiles),measurement,setting,value
COc1cccc2cc(C)c(-c3ccc4c(c3O)C(C)=N[C@H](C)C4)c(O)c12,PC50,PANC-1 [1],7.4 µM
same,Activity,PANC-1 [2],Dose-Dependent Effect
same,Activity,PANC-1 [3],Dose-Dependent Effect
same,Activity,PANC-1 [4],47%
same,Activity,PANC-1 [5],38%
same,Activity,PANC-1 [6],24%
